Where “and” joins values, the source holds several entries; their conditions need not be identical. Equal entries are not always repeated.
Key:
[1] = biological target: T1, USP9X Δβ (USP9X β-hairpin deletion) (Homo sapiens, UniProt Q93008, DEL1924-1943); assay: Ub-Rho cleavage assay, USP9X Δβ variant; type: biochemical
T1 construct: His/SUMO (pOPIN-S vector) (N, cleaved yes); made in house; host or cells: E. coli BL21
From the text: An expression construct for the USP9X catalytic domain (aa 1551–1970, […]: Q93008-1), was codon optimised for bacterial expression, synthesised in gBlock format (Integrated DNA Technologies) and cloned into the pOPIN-S vector (Berrow et al, [2007]), which was digested with KpnI and HindIII using In-Fusion™ HD cloning (Takara Clontech). […] For the USP9X Δβ catalytic domain a deletion construct ΔE1924-K1943 and for USP9X/USP24 chimera, a construct with USP9X Y1757-A1766 replaced with the USP24 (NCBI Reference Sequence: NP_056121) aa motif […] was used. All constructs were confirmed by Sanger sequencing (AGRF).
The reaction was stopped through the addition of 10 mM citric acid. The assay was performed in 384-well format with a total reaction volume of 16 µL. Data was collected using the ClarioSTAR plate reader (BMG Labtech) at an emission of 535 nm. […] IC50 values presented in our study are the mean of three independent biological repeats unless indicated otherwise.

[2] = system: T2, USP9X; assay: DUB IP-MS in MCF-7 cell lysates, USP9X; type: biochemical, human; details: 50 µM
T2 construct: endogenous in cells; host or cells: MCF-7 cell lysate
Procedure: (§1) MCF-7 cells have been profiled for active DUBs previously (Pinto-Fernández et al, [2019]). Lysates were generated as described by others (Turnbull et al, [2017]) using 30 s freeze-thaw cycles (thrice) in lysis buffer (50 mM Tris [pH 7.4], 5 mM MgCl2 × 6 H2O, 0.5 mM EDTA [pH 8.0], 250 mM sucrose and 1 mM DTT) at pH 7.5. […] A pre-treatment of cell lysates with 0.5 µg Ub-VS was included for a baseline DUB response to the Ub-VS probe. 0.1 µg 3X-FLAG-Ub-VS probe was added to samples and incubated for 5 min at 37 °C. […] Samples were washed thrice with lysis buffer and eluted from the resin with lysis buffer supplemented with 1% (w/v) SDS following a 10 min incubation. Two consecutive elutions were pooled, and samples were stored at −80 °C until processing.
(§2) DNA was hydrolysed with the addition of 2 µL neat TFA, and lysates were neutralised to pH 8.5 by the addition of 1 M Tris-HCl as previously described (Dagley et al, [2019]). Protein concentration was determined using Pierce™ BCA Protein Assay Kit (Thermo Fisher Scientific) following the manufacturer’s instructions. For DUB IP-MS, samples were processed using S-Trap spin columns (Profiti) by following the manufacturer’s instructions. […]

[3] = system: HUVECs; assay: IncuCyte live-cell imaging, HUVEC; type: cell-based
Procedure: Cells were seeded at varying densities (1000–8000 cells per well) after initial optimisation in a 96-well tissue culture-treated plate (Thermo Fisher Scientific). Cells were incubated o/n, and the next day, inhibitors and controls diluted in cell media were added to the cells to a final volume of 200 μL per well. Cell death was measured using PI (Sigma-Aldrich). Cells were imaged with four images per well every 2 h for up to 96 h using the IncuCyte live-cell analysis system (S3, Sartorius). Cell proliferation data were analysed using Microsoft Excel by normalising confluence to control conditions. For cell killing readouts, the number of PI-positive cells was normalised to the control conditions for each timepoint.

[4] = biological target: T3, USP9X catalytic domain (Homo sapiens, UniProt Q93008); assay: SPR binding assay; details: SPR, steady state, mean of three repeats; read-out: KD (steady state affinity)
T3 construct: His/SUMO (pOPIN-S vector) (N, cleaved yes); made in house; host or cells: E. coli BL21
T3 sequence (Q93008 1551-1970): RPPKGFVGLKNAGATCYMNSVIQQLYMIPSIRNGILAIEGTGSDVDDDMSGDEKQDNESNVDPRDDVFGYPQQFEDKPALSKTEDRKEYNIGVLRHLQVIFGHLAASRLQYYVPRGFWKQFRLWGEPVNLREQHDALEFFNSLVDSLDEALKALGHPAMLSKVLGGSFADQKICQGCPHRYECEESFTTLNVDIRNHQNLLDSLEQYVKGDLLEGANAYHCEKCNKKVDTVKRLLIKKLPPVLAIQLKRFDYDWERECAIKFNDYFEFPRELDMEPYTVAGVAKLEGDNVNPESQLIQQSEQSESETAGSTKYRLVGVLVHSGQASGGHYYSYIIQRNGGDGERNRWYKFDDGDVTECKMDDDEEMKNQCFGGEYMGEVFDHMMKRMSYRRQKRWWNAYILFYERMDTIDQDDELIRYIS
Procedure: Next, the sample was desalted using PD midiTrap™ G-25 (GE Healthcare) columns following the manufacturer’s instructions and was further purified by SEC, concentrated, and stored at -80 °C. Enzyme activity was tested in a ubiquitin-probe assay. SPR experiments were performed on a Biacore 8 K+ instrument (Cytiva). USP9X catalytic domain with a C-terminal AviTag™ was immobilised in 10 mM HEPES, 150 mM NaCl at pH 7.4 on a Series S Sensor Chip SA (Cytiva) by coupling. […] Running buffer was supplemented with 2% (v/v) DMSO. Multi-cycle kinetics were performed with 120 s associations and 600 s dissociations at 30 µL/min with no further regeneration. Binding constants were determined in Biacore Insight evaluation software (v5.0.18) at steady state, taking the median response over a 5-s window beginning at 10 s before the end of the association phase. Final KD values are the mean of three independent experiments.

[5] = system: T4, USP24; assay: DUB IP-MS in MCF-7 cell lysates, USP24; type: biochemical, human; details: 50 µM
T4 construct: endogenous in cells; host or cells: MCF-7 cell lysate
Procedure: as §1, §2

[6] = system: PANC-1 cells; assay: Colony formation assay, PANC-1; type: cell-based, human; details: 10 µM, 7–12 days
Procedure: Cells were seeded at low density (200–4000 cells per well) after initial optimisation in a six-well tissue culture-treated plate (Falcon). Twenty-four hours post seeding, media was replaced, and the inhibitor was added. Cells were left to grow into colonies between 7 and 12 days, depending on the cell line. For analysis, the media was removed, and the cells were fixed with 10% (w/v) formalin for 10 min. Colonies were stained with crystal violet (Sigma-Aldrich, 0.5% [w/v] in 20% [v/v] MeOH) for 10 min and washed thrice with distilled H2O. Plates were imaged using the ChemiDoc imaging system (Bio-Rad) and analysed using the ImageJ ColonyArea plugin as described previously (Guzmán et al, [2014]).

[7] = system: MOLT-4 cells; assay: NCI-60 cancer cell panel, MOLT-4; type: cell-based, human; details: 10 µM, 3 days
Procedure: Inhibitors were tested at 10 µM. Data shown is the mean of two technical replicates and is shown relative to the no-drug control, and relative to the time zero number of cells.

T1 sequence (Q93008 with tags, fused parts or gaps DEL1924-1943): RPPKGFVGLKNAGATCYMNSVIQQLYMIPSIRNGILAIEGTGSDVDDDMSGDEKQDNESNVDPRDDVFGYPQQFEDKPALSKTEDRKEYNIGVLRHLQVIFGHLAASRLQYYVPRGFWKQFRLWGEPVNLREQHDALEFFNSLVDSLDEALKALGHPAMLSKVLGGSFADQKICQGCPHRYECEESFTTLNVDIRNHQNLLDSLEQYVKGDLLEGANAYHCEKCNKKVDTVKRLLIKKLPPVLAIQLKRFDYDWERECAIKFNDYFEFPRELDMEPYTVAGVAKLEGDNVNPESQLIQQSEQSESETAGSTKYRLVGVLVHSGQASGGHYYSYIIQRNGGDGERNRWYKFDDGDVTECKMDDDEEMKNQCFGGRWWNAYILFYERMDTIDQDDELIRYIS

Cc1[nH]c2ccc(C(=O)N3CCN(S(=O)(=O)c4ccc5c(c4)OCCO5)CC3)cc2c1C [WEHI-092]
IC50 [1]: 248 nM | inhibition of USP9X in MCF-7 lysate (DUB IP-MS) [2]: inhibited all active USP9X in the lysate | toxicity to HUVECs [3]: non-lethal and non-toxic | Kd [4]: 1000 nM and 1050 nM | inhibition of USP24 in cell lysates (DUB IP-MS) [5]: not inhibited | clonogenic potential, PANC-1 [6]: strong decrease in proliferative capacity | cell growth, MOLT-4 [7]: stalling cell growth completely
